# From publication PMC5989765, “The safety, tolerability, and pharmacokinetic profile of GSK2838232, a novel 2nd generation HIV maturation inhibitor, as assessed in healthy subjects” (Pharmacology Research & Perspectives, 2018)
# Entries after “also recorded” stand apart in the source; their conditions may differ. Where two headings read alike, the source gives them in different places.
# What was measured:
# [1] = Study 204953 Part 1B: relative bioavailability capsule versus API PiB and food effect, with RTV; assay type: in vivo
# Protocol: (§1) This study was planned as an extension of the previously conducted single‐ and multiple‐dose escalation studies described above. It was a double‐blind, placebo‐controlled, single and repeat dose escalation study of micronized API GSK2838232 with RTV conducted in three parts (Part 1A, Part 1B, and Part 2).
# In Part 1A, a cohort of subjects was given single doses of 50, 100, and 250 mg of GSK2838232 with RTV, following 2 days of RTV predosing, in a sequential dose‐escalation design. Part 1B studied the relative bioavailability of GSK2838232 given as 100 mg (2 × 50 mg) capsules versus the reference API (PiB) in a two‐period crossover design with RTV, following 2 days of RTV predosing. In Period 3, subjects took the capsule formulation and RTV with a moderate fat meal (30% of calories from fat).
# (§2) Blood samples were taken via an indwelling cannula or by direct venipuncture, collected into a di‐potassium ethylenediaminetetraacetic acid (K2 EDTA) tube, and placed on wet ice. Samples were centrifuged at approximately 1500g for 10 minutes at approximately 4°C. Exactly 500 μL of the resulting plasma was transferred into labeled 1.4 mL Matrix TrakMate Tubes containing exactly 500 μL of 50 mmol/L citrate buffer, pH 4.0, and mixed well. When 500 μL of plasma was not able to be transferred, the ratio of plasma to citrate buffer was kept at 1:1. Buffered plasma samples were kept on ice and frozen at −70°C within 1 hour of collection. Plasma samples were analyzed for GSK2838232 using a validated analytical method based on protein precipitation, followed by high performance liquid chromatography with tandem mass spectrometry (HPLC/MS/MS) analysis.
# (§3) Extracts were analyzed using HPLC (Shimadzu, Nexera, 30 series) and tandem mass spectrometry detection (HPLC‐MS/MS). The mass spectrometer used was an API‐5500 using IonSpray interface (500 V) in positive mode monitoring. The mass transitions were 809.5 to 255.1 and 816.5 to 262.1 for GSK2838232 and [2H7] GSK2838232 (the isotopically labeled internal standard), respectively. The chromatographic conditions utilized a Waters Acquity UPLC BEH C18 column (50 × 2.1 mm, 1.7 μm) with mobile phases consisting of 1 mmol/L ammonium formate:formic acid (100:0.005) (mobile phase A) and acetonitrile:formic acid (100:0.1) (mobile phase B) at a flow rate of 0.6 mL/min, with pump B at 63% held for 2 minutes. The assay was validated to have precision (%RSD) of 0.7%‐6.5% (within‐run) and 1.0%‐5.9% RSD (between‐run) and with accuracy (%bias) of 0.0%‐1.6%. […] The lower limit of quantification (LLQ) was 0.5 ng/mL, using a 50 μL aliquot of K2EDTA acidified plasma. The higher limit of quantification (HLQ) was 500 ng/mL.
# (§4) The PK parameters were calculated by standard noncompartmental analysis based on actual sampling times using WinNonlin Version 6.3 or higher. Estimation of AUC used the linear up/log down trapezoidal rule.
# For the assessment of relative bioavailability of the capsule formulation compared to the PiB suspension and of the food effect using the capsule formulation (all with RTV), PK parameters were separately analyzed for each treatment using a mixed effects model with fixed effect terms for period and treatment following loge transformation. Subject was treated as a random effect in the model. Point estimates and their associated 90% CIs were constructed for the differences in PK parameter values between the test and reference treatments. The point estimates and their associated 90% CIs were then back‐transformed to provide point estimates and 90% CIs for the ratios of PK parameters from test and reference treatments on the original scale.
# [2] = Study 204953 Part 2: repeat dosing for 11 days with RTV QD or 200 mg BID unboosted; assay type: in vivo, human; details: for CL/F / Cmax / AUC / half-life: geometric mean (95% CI); for Cmax / Tmax / AUC / concentration at 24 h / half-life / concentration at 12 h: human, plasma, oral; for AUC: read-out: AUC(0‐τ); for half-life: read-out: t½ (converted); for dose proportionality (C max and AUC): repeat QD dosing 20‐200 mg with RTV for 11 days, PiB or capsules
# Protocol: as §1
# In Part 2, GSK2838232 was given to separate cohorts as once‐daily 20, 50, 100, and 200 mg doses with RTV for 11 days, with GSK2838232 and RTV dosing starting at the same time (i.e., no RTV predosing). GSK2838232 was administered as PiB for the 20 and 50 mg cohorts and as the capsule formulation for the 100 and 200 mg cohorts. Another separate cohort of subjects received GSK2838232 alone (i.e., unboosted) at a dose of 200 mg twice‐daily (BID; given every 12 hours) for 11 days using the capsule formulation to assess trough concentrations without RTV co‐administration.
# as §2, §3, §4
# [3] = in vitro, across all species; cited from earlier work
# [4] = 100 mg Fed (moderate, 30% fat meal) versus 100 mg fasted, API capsule formulation with RTV, Study 204953
# [5] = Capsule : API PiB, single 100 mg + ritonavir, Study 204953
# [6] = Study Day 11, 20 mg QD + RTV (PiB), Study 204953
# [7] = Study Day 11, 50 mg QD + RTV (PiB), Study 204953
# [8] = Study Day 11, 100 mg QD + RTV (capsules), Study 204953
# [9] = Study Day 11, 200 mg QD + RTV (capsules), Study 204953
# [10] = 200 mg, Study Day 11, 200 mg bid without RTV (capsules), Study 204953
# [11] = relative to first dose following predosing ritonavir to steady‐state
smiles,measurement,setting,value
CC(C)C1=C2[C@H]3CC[C@@H]4[C@@]5(C)CC[C@H](OC(=O)CC(C)(C)C(=O)O)C(C)(C)[C@@H]5CC[C@@]4(C)[C@]3(C)CC[C@@]2([C@@H](O)CN(CCN(C)C)Cc2ccc(Cl)cc2)CC1=O [GSK2838232],"Geometric least square mean ratio [90% CI], AUC(0‐∞)",[1]; [4],"1.58 (1.412,1.777)"
same,"Geometric least square mean ratio [90% CI], C max",[1]; [4],"1.62 (1.376,1.911)"
same,"Ratio of Geometric Least Square Means, AUC(0‐∞)",[1]; [5],1.43
same,"Ratio of Geometric Least Square Means, C max",[1]; [5],1.58
same,bioavailability after meal relative to the fasted state,"[1]; capsule formulation with RTV, moderate fat (30%) meal, Study 204953",approximately 1.6 fold
same,"C24, capsule relative to PiB suspension",[1]; single 100 mg with RTV,1.4 fold
same,"C max, capsule relative to PiB suspension",[1]; single 100 mg with RTV,1.6 fold
same,"t½ geometric LS mean ratio, capsule versus PiB","[1]; single 100 mg with RTV, data not shown",no difference
same,steady‐state C24 as multiple of PA‐IC90,"[2]; 200 mg BID unboosted, PA‐IC90 5 ng/mL",~ 8 fold
same,steady‐state C24 of 200 mg BID without RTV compared with 50 mg QD with RTV,[2]; Study 204953,similar
same,CL/F,[2]; [6],"44.5 (29.5, 67.3) L/h"
same,CL/F,[2]; [7],"46.0 (35.7, 59.2) L/h"
same,CL/F,[2]; [8],"41.5 (30.7, 56.1) L/h"
same,CL/F,[2]; [9],"49.8 (30.3, 81.9) L/h"
same,CL/F,"[2]; Study Day 11, 200 mg bid without RTV (capsules), Study 204953","269 (182, 399) L/h"
same,Cmax,"[2]; 20 mg, Study day 1, 20 mg QD + RTV (PiB), Study 204953",11.1 ng/mL
same,Tmax,"[2]; 20 mg, Study day 1, 20 mg QD + RTV (PiB), Study 204953, median (range)",3.74 h
same,AUC,"[2]; 20 mg, Study day 1, 20 mg QD + RTV (PiB), τ = 24 hours, Study 204953",175 ng·h/mL
same,concentration at 24 h,"[2]; 20 mg, Study day 1, 20 mg QD + RTV (PiB), τ = 24 hours, Study 204953, median (range), read-out: Cτ",6.09 ng/mL
same,Cmax,"[2]; 50 mg, Study day 1, 50 mg QD + RTV (PiB), Study 204953",17.1 ng/mL
same,Tmax,"[2]; 50 mg, Study day 1, 50 mg QD + RTV (PiB), Study 204953, median (range)",2.5 h
same,AUC,"[2]; 50 mg, Study day 1, 50 mg QD + RTV (PiB), τ = 24 hours, Study 204953",265 ng·h/mL
same,concentration at 24 h,"[2]; 50 mg, Study day 1, 50 mg QD + RTV (PiB), τ = 24 hours, Study 204953, median (range), read-out: Cτ",11.1 ng/mL
same,Cmax,"[2]; 100 mg, Study day 1, 100 mg QD + RTV (capsules), Study 204953",46.2 ng/mL
same,Tmax,"[2]; 100 mg, Study day 1, 100 mg QD + RTV (capsules), Study 204953, median (range)",2.25 h
same,AUC,"[2]; 100 mg, Study day 1, 100 mg QD + RTV (capsules), τ = 24 hours, Study 204953",635 ng·h/mL
same,concentration at 24 h,"[2]; 100 mg, Study day 1, 100 mg QD + RTV (capsules), τ = 24 hours, Study 204953, median (range), read-out: Cτ",22.7 ng/mL
same,concentration at 24 h,"[2]; 200 mg, 200 mg BID unboosted, read-out: steady‐state C24 mean concentration",39 ng/mL
same,Cmax,[2]; [10],96.1 ng/mL
same,half-life,[2]; [10],19.4 h
same,Tmax,"[2]; 200 mg, Study Day 11, 200 mg bid without RTV (capsules), Study 204953, median (range)",3.76 h
same,AUC,"[2]; 200 mg, Study Day 11, 200 mg bid without RTV (capsules), τ = 12 hours, Study 204953",742 ng·h/mL
same,concentration at 12 h,"[2]; 200 mg, Study Day 11, 200 mg bid without RTV (capsules), τ = 12 hours, Study 204953, median (range), read-out: Cτ",38.4 ng/mL
same,Cmax,"[2]; 200 mg, Study day 1, 200 mg QD + RTV (capsules), Study 204953",75 ng/mL
same,Tmax,"[2]; 200 mg, Study day 1, 200 mg QD + RTV (capsules), Study 204953, median (range)",2.25 h
same,AUC,"[2]; 200 mg, Study day 1, 200 mg QD + RTV (capsules), τ = 24 hours, Study 204953",1060 ng·h/mL
same,concentration at 24 h,"[2]; 200 mg, Study day 1, 200 mg QD + RTV (capsules), τ = 24 hours, Study 204953, median (range), read-out: Cτ",40.1 ng/mL
same,Cmax,"[2]; 200 mg, Study day 1, 200 mg bid without RTV (capsules), Study 204953",48.5 ng/mL
same,Tmax,"[2]; 200 mg, Study day 1, 200 mg bid without RTV (capsules), Study 204953, median (range)",3.74 h
same,AUC,"[2]; 200 mg, Study day 1, 200 mg bid without RTV (capsules), τ = 12 hours, Study 204953",267 ng·h/mL
same,concentration at 12 h,"[2]; 200 mg, Study day 1, 200 mg bid without RTV (capsules), τ = 12 hours, Study 204953, median (range), read-out: Cτ",20 ng/mL
same,Cmax,[2]; [6],25.3 ng/mL
same,half-life,[2]; [6],19.8 h
same,Tmax,"[2]; Study Day 11, 20 mg QD + RTV (PiB), Study 204953, median (range)",5.98 h
same,AUC,"[2]; Study Day 11, 20 mg QD + RTV (PiB), τ = 24 hours, Study 204953",449 ng·h/mL
same,concentration at 24 h,"[2]; Study Day 11, 20 mg QD + RTV (PiB), τ = 24 hours, Study 204953, median (range), read-out: Cτ",17 ng/mL
same,Cmax,[2]; [7],56.6 ng/mL
same,half-life,[2]; [7],20.5 h
same,Tmax,"[2]; Study Day 11, 50 mg QD + RTV (PiB), Study 204953, median (range)",3.75 h
same,AUC,"[2]; Study Day 11, 50 mg QD + RTV (PiB), τ = 24 hours, Study 204953",1090 ng·h/mL
same,concentration at 24 h,"[2]; Study Day 11, 50 mg QD + RTV (PiB), τ = 24 hours, Study 204953, median (range), read-out: Cτ",40.8 ng/mL
same,Cmax,[2]; [8],130 ng/mL
same,half-life,[2]; [8],17.7 h
same,Tmax,"[2]; Study Day 11, 100 mg QD + RTV (capsules), Study 204953, median (range)",3.25 h
same,AUC,"[2]; Study Day 11, 100 mg QD + RTV (capsules), τ = 24 hours, Study 204953",2410 ng·h/mL
same,concentration at 24 h,"[2]; Study Day 11, 100 mg QD + RTV (capsules), τ = 24 hours, Study 204953, median (range), read-out: Cτ",89.3 ng/mL
same,Cmax,[2]; [9],225 ng/mL
same,half-life,[2]; [9],18 h
same,Tmax,"[2]; Study Day 11, 200 mg QD + RTV (capsules), Study 204953, median (range)",3.25 h
same,AUC,"[2]; Study Day 11, 200 mg QD + RTV (capsules), τ = 24 hours, Study 204953",4010 ng·h/mL
same,concentration at 24 h,"[2]; Study Day 11, 200 mg QD + RTV (capsules), τ = 24 hours, Study 204953, median (range), read-out: Cτ",142 ng/mL
same,reduction of Day 1 AUC without ritonavir predosing,[2]; [11],~25%
same,reduction of Day 1 C max without ritonavir predosing,[2]; [11],~25%
same,dose proportionality (C max and AUC),[2],proportional PK; also recorded: dose proportional
same,dose proportionality (C max and AUC),[2]; listed as GSK2383232,proportional pharmacokinetics
same,plasma protein binding,[3],> 99.9%
